US4672117A, “Antipsychotic gamma-carbolines” (American Home Products Corporation, priority 1985, dated 1987)

Assays:
male CD rats [1] = assay: conditioned avoidance, shelf-jump response (S-J); assay type: in vivo; conditions: rat
Source text: (§1) The antipsychotic properties of the compounds of this invention were established by standard pharmacologically accepted procedures involving two conditioned avoidance studies in which trained male CD rats (Charles River), 400-450 gm body weight are exposed to a fifteen second warning tone (conditioned stimulus) continued for an additional fifteen seconds accompanied by electric shock. The rat can avoid the electric shock by depression of a response lever (lever-response) or in a different study by jumping to an exposed shelf (shelf-jump response). In either test situation, a response during the initial warning tone is considered an avoidance response while a response during shock delivery is considered an escape response. The avoidance response is determined and expressed as a percentage of total trials from an appropriate number of trials and a 50% block in avoidance responding (AB50) is obtained from a dose-effect regression line. All the data is based upon (mg/kg) dosing of the animals. The shelf-jump response test procedure follows that of Herman et al., Comm. in Psychopharm., 3, pp. 165-171 (1979).
(§2) The following examples illustrate the production of compounds of this invention. After each example the pharmacological evaluation for the compound produced is presented. The conditioned avoidance tests are reported as relative activity for the shelf-jump (S-J) at the intraperitoneal (i.p.) dose administered in mg/kg and the AB50 is presented for the lever-response (L-R) test at the oral (p.o.) dose in mg/kg. The inhibition constant is reported for limbic D-2 binding expressed in nM concentration.

[2] = biological target: T1, limbic D-2 dopamine receptor (Rattus norvegicus, UniProt P61169); assay: limbic D-2 binding, 3H-spiroperidol, homogenized limbic brain tissue; conditions: 95% confidence interval in brackets, read-out: Limbic D-2 inhibition constant (Ki)
T1 construct: from tissue
Description: Binding in the presence of the test compound is expressed as a percent of specific binding (total binding less binding in the presence of 1 μM (+)butaclamol). An inhibition constant (Ki) is calculated for each test compound to categorize its limbic D-2 binding potential. The larger the number, the less potential for dopamine receptor binding and attendant side effects from administration of the antipsychotic agent.
as §2

[3] = antagonism of apomorphine-induced stereotyped behavior; conditions: mouse, in vivo, ip, CF-1 mice, 10 mg/kg apomorphine s.c. 30 min later; measure of extrapyramidal side effects; read-out: ED50 for inhibition of apomorphine-induced stereotyped behavior
male CD rats [4] = assay: conditioned avoidance, lever-response (L-R); assay type: in vivo; conditions: rat; for L-R relative activity: lever-response conditioned avoidance; for ED50: po, lever-response, p.o., interval in brackets, read-out: L-R AB50 (50% block in avoidance responding)
Source text: as §1, §2

T1 sequence (P61169 whole entry): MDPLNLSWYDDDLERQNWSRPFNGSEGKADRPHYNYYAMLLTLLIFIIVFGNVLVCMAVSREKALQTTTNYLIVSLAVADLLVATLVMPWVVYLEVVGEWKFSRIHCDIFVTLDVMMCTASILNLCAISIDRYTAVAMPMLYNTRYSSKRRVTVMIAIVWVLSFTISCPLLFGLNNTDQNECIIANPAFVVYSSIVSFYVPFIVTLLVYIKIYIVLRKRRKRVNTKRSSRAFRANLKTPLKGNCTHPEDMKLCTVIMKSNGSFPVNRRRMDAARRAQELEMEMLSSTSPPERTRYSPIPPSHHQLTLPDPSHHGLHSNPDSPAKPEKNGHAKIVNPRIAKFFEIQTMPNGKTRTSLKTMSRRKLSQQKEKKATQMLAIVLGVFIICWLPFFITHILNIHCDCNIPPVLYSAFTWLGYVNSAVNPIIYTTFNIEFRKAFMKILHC

| SMILES | S-J relative activity (male CD rats [1]; 40 mg/kg i.p.) | Ki [2] | other results |
| --- | --- | --- | --- |
| Fc1ccc(-n2c3c(c4cc(F)ccc42)CN(CCc2ccncc2)CC3)cc1 [Example 7, 8-Fluoro-5-(4-fluorophenyl)-2,3,4,5-tetrahydro-2-[2-(4-pyridinyl)ethyl]-1H-pyrido[4,3-b]indole] | Active | 12 nM |  |
| Fc1ccc(-n2c3c(c4cc(F)ccc42)CN(CCc2ccc4ccccc4n2)CC3)cc1 [Example 5, 8-Fluoro-5-(4-fluorophenyl)-2,3,4,5-tetrahydro-2-[2-(2-quinolinyl)ethyl]-1H-pyrido[4,3-b]indole] | Active | 1.07 nM | ED50 [3]: 1.62 mg/kg; L-R relative activity (male CD rats [4]; 40 mg/kg p.o.): Active |
| c1ccc(C2CN(CCCc3cccnc3)Cc3c2[nH]c2ccccc32)cc1 (stereo not drawn) [Example 3, 2,3,4,5-Tetrahydro-4-phenyl-2-[3-(3-pyridinyl)propyl]-1H-pyrido[4,3-b]indole] |  | 140 nM |  |
| Fc1ccc(-n2c3c(c4cc(F)ccc42)CN(CCCCc2ccccn2)CC3)cc1 [Example 6, 8-Fluoro-5-(4-fluorophenyl)-2,3,4,5-tetrahydro-2-[4-(2-pyridinyl)butyl]-2H-pyrido[4,3-b]indole] | Active |  |  |
| Fc1ccc(-n2c3c(c4cc(F)ccc42)CN(CCc2ccccn2)CC3)cc1 [Example 1, 8-Fluoro-5-(4-fluorophenyl)-2,3,4,5-tetrahydro-2-[2-(2-pyridinyl)ethyl]-1H-pyrido[4,3-b]indole] |  | 7 nM | S-J relative activity (male CD rats [1]; 20 mg/kg i.p.): Active; L-R relative activity (male CD rats [4]; 20 mg/kg p.o.): Active; ED50 (male CD rats [4]): 6.3 mg/kg |
| Fc1ccc(-n2c3c(c4cc(F)ccc42)CN(CCc2cnccn2)CC3)cc1 [Example 8, 8-Fluoro-5-(4-fluorophenyl)-2,3,4,5-tetrahydro-2-[2-(2-pyrazinyl)ethyl]-1H-pyrido[4,3-b]indole] | Very Active |  | L-R relative activity (male CD rats [4]; 20 mg/kg p.o.): Active; ED50 (male CD rats [4]): 15.2 mg/kg |
| c1ccc(C2CN(CCCCc3ccncc3)Cc3c2[nH]c2ccccc32)cc1 (stereo not drawn) [Example 2, 2,3,4,5-Tetrahydro-4-phenyl-2-[4-(4-pyridinyl)butyl]-1H-pyrido[4,3-b]indole] |  | 404 nM | S-J relative activity (male CD rats [1]; 20 mg/kg i.p.): Very weak |
| c1ccc(C2CN(CCc3ccccn3)Cc3c2[nH]c2ccccc32)cc1 (stereo not drawn) [Example 4, 2,3,4,5-Tetrahydro-4-phenyl-2-[2-(2-pyridinyl)ethyl]-1H-pyrido[4,3-b]indole] |  | 600 nM |  |
